{"source": "paper PMC6155437", "about": "(Molecules : A Journal of Synthetic Chemistry and Natural …, 2017)", "origin": "cited, not measured here", "key": {"[1]": {"target": "CYP3A4 (Homo sapiens, UniProt P08684)", "sequence (P08684 whole entry)": "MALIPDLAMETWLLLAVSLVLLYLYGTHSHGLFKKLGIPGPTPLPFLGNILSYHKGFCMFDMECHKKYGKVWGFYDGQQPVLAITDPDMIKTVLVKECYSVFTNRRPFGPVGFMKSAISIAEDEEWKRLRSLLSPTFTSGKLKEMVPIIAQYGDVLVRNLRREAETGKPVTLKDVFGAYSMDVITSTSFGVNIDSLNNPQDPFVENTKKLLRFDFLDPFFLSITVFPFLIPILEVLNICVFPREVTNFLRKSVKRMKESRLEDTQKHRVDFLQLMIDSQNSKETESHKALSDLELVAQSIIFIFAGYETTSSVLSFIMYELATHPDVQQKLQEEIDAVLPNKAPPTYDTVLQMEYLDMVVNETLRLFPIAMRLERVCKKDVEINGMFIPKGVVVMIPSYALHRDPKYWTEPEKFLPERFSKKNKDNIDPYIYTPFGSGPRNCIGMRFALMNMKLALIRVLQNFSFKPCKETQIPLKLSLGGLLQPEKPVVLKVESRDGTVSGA", "details": "CYP3A4 activity; cited from earlier work"}, "[2]": {"target": "T1, CYP2B6 (Homo sapiens, UniProt P20813)", "T1 construct": "pooled human liver microsomes (0.2 mg/mL); tissue Corning Life Sciences; host or cells: pooled human liver microsomes (150 donors)", "T1 sequence (P20813 1-491)": "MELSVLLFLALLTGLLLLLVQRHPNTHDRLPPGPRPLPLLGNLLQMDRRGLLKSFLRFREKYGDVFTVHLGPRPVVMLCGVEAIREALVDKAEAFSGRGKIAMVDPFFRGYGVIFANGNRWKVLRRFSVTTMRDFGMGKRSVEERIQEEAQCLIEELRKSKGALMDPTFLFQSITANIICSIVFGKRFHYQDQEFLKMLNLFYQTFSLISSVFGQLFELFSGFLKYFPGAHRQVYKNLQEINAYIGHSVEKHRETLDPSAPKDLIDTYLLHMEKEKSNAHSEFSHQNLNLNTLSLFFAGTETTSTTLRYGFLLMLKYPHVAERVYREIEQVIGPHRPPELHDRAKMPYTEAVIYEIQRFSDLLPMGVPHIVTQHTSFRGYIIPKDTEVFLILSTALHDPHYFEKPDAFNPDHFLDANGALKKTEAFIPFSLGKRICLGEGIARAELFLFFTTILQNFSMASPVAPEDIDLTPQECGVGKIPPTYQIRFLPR", "parameters": "method as in doi:10.1007/s11419-011-0112-7", "details": "CYP2B6 activity; cited from earlier work"}, "[3]": {"target": "T2, CYP2C9 (Homo sapiens, UniProt P11712)", "T2 construct": "tissue Corning Life Sciences; host or cells: pooled human liver microsomes (150 donors)", "T2 sequence (P11712 whole entry)": "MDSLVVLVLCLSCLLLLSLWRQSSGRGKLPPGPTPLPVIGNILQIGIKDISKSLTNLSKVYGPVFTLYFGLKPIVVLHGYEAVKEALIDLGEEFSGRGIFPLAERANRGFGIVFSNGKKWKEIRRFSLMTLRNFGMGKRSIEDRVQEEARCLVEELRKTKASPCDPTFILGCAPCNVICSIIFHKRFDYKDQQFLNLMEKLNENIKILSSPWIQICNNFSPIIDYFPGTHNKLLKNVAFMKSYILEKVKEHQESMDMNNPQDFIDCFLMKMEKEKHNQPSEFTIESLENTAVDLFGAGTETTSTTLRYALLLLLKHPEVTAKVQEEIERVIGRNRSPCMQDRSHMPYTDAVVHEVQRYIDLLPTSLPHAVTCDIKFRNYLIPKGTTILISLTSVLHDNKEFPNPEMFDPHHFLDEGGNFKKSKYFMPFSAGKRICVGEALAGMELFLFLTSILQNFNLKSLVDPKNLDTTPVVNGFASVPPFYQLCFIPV", "parameters": "method as in PMID 22166891", "details": "CYP2C9-catalyzed diclofenac hydroxylation in human liver microsomes; cited from earlier work"}}}
{"smiles": "CCCCCc1cc(O)c2c(c1)OC(C)(C)c1ccc(C)cc1-2", "note": "[cannabinol]", "values": [{"measurement": "IC50", "setting": "[1]", "value": "> 50000", "unit": "nM"}]}
{"smiles": "CCCCCc1cc(O)c2c(c1)OC(C)(C)[C@@H]1CCC(C)=C[C@@H]21", "note": "[THC, Δ9-tetrahydrocannabinol]", "values": [{"measurement": "IC50", "setting": "[1]", "value": "> 50000", "unit": "nM"}, {"measurement": "Ki", "setting": "[2]", "value": 2810, "unit": "nM"}, {"measurement": "Ki", "setting": "[3]", "value": 1310, "unit": "nM"}]}
